Source: paper PMC8154566, “Scaffold-Hopping Strategy on a Series of Proteasome Inhibitors Led to a Preclinical Candidate for the Treatment of Visceral Leishmaniasis” (Journal of Medicinal Chemistry, 2021)
≈ marks a conversion by molar mass, not a printed value.

Assays:
L. donovani amastigotes = assay: INMAC assay: intramacrophage L. donovani in differentiated THP-1 cells; type: cell-based, Leishmania donovani; conditions: for loss of potency: INMAC, relative to compound 4; for EC50 / IC50: Leishmania donovani; for EC50: THP-1, Table 2, at least three replicates, SD ≤0.4, read-out: INMAC (pEC50) (converted); for IC50: THP-1, read-out: LdInMac pIC50 (converted)
Method: (§1) Intramacrophage L. donovani Assay. This assay was conducted as previously described, except for […]

THP-1 cells = assay: THP-1 host cell read-out of the INMAC assay; type: cell-based; conditions: Homo sapiens, THP-1; for EC50: Table 2, read-out: THP-1 (pEC50) (converted); for IC50: supplementary csv, read-out: THP1 pIC50 (converted)
Method: as §1

[1] = Kinetic aqueous solubility by CLND; type: physicochemical
Method: We had successfully used these criteria in the hit to lead stage to identify compounds for in vivo proof-of-concept studies in another program, which subsequently led to the identification of preclinical candidate DDD853651/GSK3186899 active against CRK12.[7] […] A pharmacokinetic (PK) study was thus performed, dosed at 10 mg/kg po and 3 mg/kg iv. […] With the limited knowledge of the PK/PD drivers for the treatment of VL, we considered this to be a suitable profile for the progression of 4 into a previously reported mouse efficacy model of VL,[6],[7],[17],[18] where it was dosed twice daily at 50 mg/kg ip in order to further maximize exposure and give the best chance of achieving proof-of-concept.
(§2) Intramacrophage L. donovani Assay. This assay was conducted as previously described, except for compound exposure time, which was 96 h instead of 72 h.4
(§3) Intrinsic Clearance. This assay was conducted as previously described.5 Aqueous Solubility. This assay was conducted as previously described.6
(§4) FaSSIF Solublity. This assay was conducted as previously described.5,7
(§5) In vivo Mouse Efficacy Studies. In vivo studies were carried out as previously described, with minor modifications.7 Briefly: Control drug used was Miltefosine (30 mg/kg orally, twice daily for 5 days), vehicle used was 10% (v/v) dimethyl sulfoxide (DMSO), 40% polyethylene glycol 400, and 50% deionized water (10 Ml/kg orally, twice daily for 5 days) and mice were treated with test compound intraperitoneally (50 mg/kg twice daily for 5 days). 5
(§6) All regulated procedures on living animals were carried out under the authority of a project license issued by the Home Office under the Animals (Scientific Procedures) Act 1986, as amended in 2012 (and in compliance with EU Directive EU/2010/63). Infected animals had access to food and water ad libitum and were housed under a 12 hour light/dark photoperiod. Animals used in these experiments were female NMRI and Balb/c mice (Harlan, UK).
(§7) Test compound DDD01008714 was dosed orally (P.O.) at 10 mg free base/kg (dose volume 10 mL/kg; dose vehicle: 10% (vol/vol) dimethyl sulfoxide (DMSO), 40% polyethylene glycol 400 (PEG400) and 50% deionized water) to female NMRI mice (n = 3) or intravenously (I.V.) at 3 mg free base/kg (dose volume 5 mL/kg; dose vehicle: 10% (vol/vol) dimethyl sulfoxide (DMSO) and 90% Saline) to female Balb/c mice (n = 3). Blood samples (10 μL) where taken from the tail vein of […]

[2] = FaSSIF (fasted state simulated intestinal fluid) solubility; type: physicochemical; conditions: for solubility at 4 h: pH 6.5, Table 2
Method: as §2, §3, §4, §5, §6, §7

[3] = Mouse liver microsomal intrinsic clearance; type: in vitro ADME; conditions: for Mouse CLi: Table 2, mouse liver microsomes; for Cli (mouse, ml/min/g): supplementary csv
Method: as §2, §3, §4, §5, §6, §7

[4] = Table 2, kinetic, CLND, read-out: Aq. solubility
[5] = supplementary csv, read-out: Aqueous Solubility

Compound	loss of potency (L. donovani amastigotes) [fold]	EC50 (L. donovani amastigotes) [µM]	EC50 (THP-1 cells) [µM]	IC50 (THP-1 cells) [µM]	solubility [1, 4] [µM]	solubility [1, 5] [µM]	solubility at 4 h [2] [µM]	Mouse CLi [3] [mL/min/g]	Cli (mouse, ml/min/g) [3] [mL/min/g]	IC50 (L. donovani amastigotes) [µM]	solubility ([2]; Table 2) [µM]	solubility ([2]; supplementary csv) [µM]
O=C(Nc1cc(-c2cn3cc(N4CCOCC4)cnc3n2)ccc1F)N1CCCC1 [Compound 5, N-(2-Fluoro-5-(6-morpholinoimidazo[1,2-a]pyrimidin-2-yl)phenyl)pyrrolidine-1-carboxamide]	> 10	15.8	> 50.1	> 50.1	256 (≈ 105 µg/mL)	260 (≈ 107 µg/mL)	51 (≈ 20.9 µg/mL)	0.9	0.9	–	–	–
O=C(Nc1cccc(-c2cn3cc(N4CCOCC4)cnc3n2)c1)N1CCCC1 [Compound 6, N-(3-(6-Morpholinoimidazo[1,2-a]pyrimidin-2-yl)phenyl)pyrrolidine-1-carboxamide]	> 10	12.6	> 50.1	> 50.1	–	–	–	0.8	0.8	–	–	–
COc1ccc(NC(=O)N2CCCC2)cc1-c1cn2cc(N3CCOCC3)cnc2n1 [Compound 7, N-(4-Methoxy-3-(6-morpholinoimidazo[1,2-a]pyrimidin-2-yl)phenyl)pyrrolidine-1-carboxamide]	> 10	> 50.1	> 50.1	> 50.1	≥ 425	≥ 430	83 (≈ 35.1 µg/mL)	<0.5	<0.5	> 50.1	–	–
COc1ccc(-c2cn3cc(N4CCOCC4)cnc3n2)cc1NC(=O)N1CCCC1 [Compound 8, N-(2-Methoxy-5-(6-morpholinoimidazo[1,2-a]pyrimidin-2-yl)phenyl)pyrrolidine-1-carboxamide]	> 10	20	> 50.1	> 50.1	≥ 380	–	265 (≈ 112 µg/mL)	1.4	1.4	–	> 100	270 (≈ 114 µg/mL)
O=C(Nc1cccc(-c2cn3cc(N4CCOCC4)cnc3n2)n1)N1CCCC1 [Compound 9, N-(6-(6-Morpholinoimidazo[1,2-a]pyrimidin-2-yl)pyridin-2-yl)pyrrolidine-1-carboxamide]	> 10	> 50.1	> 50.1	> 50.1	≥ 476	≥ 480	80 (≈ 31.5 µg/mL)	<0.5	<0.5	> 50.1	–	81 (≈ 31.9 µg/mL)
O=C(Nc1cc(-c2cn3cc(N4CCOCC4)cnc3n2)ncn1)N1CCCC1 [Compound 10, N-(6-(6-Morpholinoimidazo[1,2-a]pyrimidin-2-yl)pyrimidin-4-yl)pyrrolidine-1-carboxamide]	> 10	> 50.1	> 50.1	> 50.1	≥ 435	≥ 440	2050 (≈ 807 µg/mL)	<0.5	<0.5	> 50.1	> 100	> 1000
O=C(Nc1cncc(-c2cn3cc(N4CCOCC4)cnc3n2)n1)N1CCCC1 [Compound 11, N-(6-(6-Morpholinoimidazo[1,2-a]pyrimidin-2-yl)pyrazin-2-yl)pyrrolidine-1-carboxamide]	> 10	> 50.1	> 50.1	> 50.1	≥ 396	≥ 400	213 (≈ 84 µg/mL)	<0.5	<0.5	> 50.1	> 100	210 (≈ 82.8 µg/mL)
